Patent USRE38167E1, “Weight reduction method for cats and other pets” (International Flora Technologies Ltd, priority 1996, dated 2003)

Assay: Cat free-choice feeding study: daily food intake
Assay type: in vivo
Conditions: overweight cats
Procedure: All feeding studies were conducted from Feb. 26, 1998 to Sep. 17, 1998 at Summit Ridge Farms, Susquehanna, Pa. All were adult domestic short-haired cats. Most were quite old, as they had been in the colony 3 to 14 years and were thought to have been 1 to 4 years of age when they were obtained (Table 11). Just before beginning the study, all cats were given a thorough physical examination by a veterinarian. […] Each cat's current and estimated optimum weight were determined during this exam. […] All cats were housed individually with 12 hr light and dark cycles, and at a temperature of 60 to 85° F. and humidity of 30 to 70%. Food bowls, water bowls and litter boxes were emptied and sanitized daily. Water and the diet being fed were always available for free choice consumption except the night before the cats were to be weighed, when food bowls were removed. The amount of diet consumed was recorded, diet uneaten discarded and fresh diet fed daily. Weekly, following an overnight (14-hr) fast, each cat was weighed. Each cat was initially fed the non-jojoba containing diet FC-0 for 4 weeks, or until it was 14% or more over its estimated optimum weight, at which time it was fed either the diet containing 4% (FC-2) or 8% (FC-3) jojoba. Cats whose weight decreased by more than 4.6% in 1 week, or 6% in 2 weeks, were changed to the next lower jojoba-containing diet. […] When a cat was within 2.0% of its optimum weight, it was changed to a lower jojoba-containing diet; either that containing 2% or 4% (FC-1 or FC-2). If optimum body weight wasn't maintained when this diet was fed, the cat was changed to a higher jojoba-containing diet if it had gained weight and a lower jojoba-containing diet if it had lost weight. When the cat's weight had been maintained within 4% of its optimum for 4 weeks while eating the same diet, it was given a thorough physical exam by a veterinarian and removed from the study.

Structure (SMILES): CO[C@H]1[C@@H](OC)C[C@@H](O[C@@H]2O[C@H](CO)[C@@H](O)[C@H](O)[C@H]2O)/C(=C\C#N)[C@@H]1O [Simmondsin, simmondsin]
- Percent Decrease in Food Intake (0.12% bioactive simmondsin activity in diet): 17.8%
- Percent Decrease in Food Intake (0.24% bioactive simmondsin activity in diet): 30.7%
- Percent Decrease in Food Intake (0.49% bioactive simmondsin activity in diet): 45.9%
- Percent Decrease in Food Intake (0.73% bioactive simmondsin activity in diet): 49.2%
